Test results reported in ChEMBL document CHEMBL1137514, “Synthesis and biological evaluation of non-peptide alpha(v)beta(3)/alpha(5)beta(1) integrin dual antagonists containing 5,6-dihydropyridin-2-one scaffolds” (Bioorg Med Chem, 2007).
Residues, ends and D or L forms follow the SMILES beside them.

Key:
Integrin alpha-V/beta-3 = Integrin alpha-V/beta-3 (Homo sapiens, UniProt P05106+P06756); assay: Inhibition of integrin alpha-V-beta-3-mediated SK-MEL-24 cell adhesion to fibronectin
Integrin alpha-5/beta-1 = Integrin alpha-5/beta-1 (Homo sapiens, UniProt P05556+P08648); assay: Inhibition of integrin alpha-5-beta-1-mediated K562 cell adhesion to fibronectin; type: cell-based
Sequence of Integrin alpha-5/beta-1 (P05556 21-798 limits assumed): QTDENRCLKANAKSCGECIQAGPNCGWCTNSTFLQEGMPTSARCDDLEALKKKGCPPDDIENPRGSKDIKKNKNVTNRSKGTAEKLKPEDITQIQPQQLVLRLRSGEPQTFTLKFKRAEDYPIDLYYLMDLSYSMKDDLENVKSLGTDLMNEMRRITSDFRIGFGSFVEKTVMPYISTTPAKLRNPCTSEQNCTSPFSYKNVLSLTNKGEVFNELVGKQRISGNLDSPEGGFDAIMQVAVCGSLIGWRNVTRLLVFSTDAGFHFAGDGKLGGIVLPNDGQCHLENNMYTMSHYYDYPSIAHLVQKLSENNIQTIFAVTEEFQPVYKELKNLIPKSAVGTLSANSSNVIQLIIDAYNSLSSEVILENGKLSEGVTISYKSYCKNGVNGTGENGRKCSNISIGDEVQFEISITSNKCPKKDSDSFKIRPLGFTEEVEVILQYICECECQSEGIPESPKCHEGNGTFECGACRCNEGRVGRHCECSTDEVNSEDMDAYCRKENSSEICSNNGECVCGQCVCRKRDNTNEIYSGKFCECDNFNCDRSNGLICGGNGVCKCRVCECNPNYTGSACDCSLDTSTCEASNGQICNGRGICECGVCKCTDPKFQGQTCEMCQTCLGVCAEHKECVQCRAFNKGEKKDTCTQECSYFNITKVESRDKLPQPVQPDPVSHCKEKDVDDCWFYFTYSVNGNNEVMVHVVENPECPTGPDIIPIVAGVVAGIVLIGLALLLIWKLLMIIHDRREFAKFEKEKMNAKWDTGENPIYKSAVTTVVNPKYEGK
Sequence of Integrin alpha-5/beta-1 (P08648 42-894 limits assumed): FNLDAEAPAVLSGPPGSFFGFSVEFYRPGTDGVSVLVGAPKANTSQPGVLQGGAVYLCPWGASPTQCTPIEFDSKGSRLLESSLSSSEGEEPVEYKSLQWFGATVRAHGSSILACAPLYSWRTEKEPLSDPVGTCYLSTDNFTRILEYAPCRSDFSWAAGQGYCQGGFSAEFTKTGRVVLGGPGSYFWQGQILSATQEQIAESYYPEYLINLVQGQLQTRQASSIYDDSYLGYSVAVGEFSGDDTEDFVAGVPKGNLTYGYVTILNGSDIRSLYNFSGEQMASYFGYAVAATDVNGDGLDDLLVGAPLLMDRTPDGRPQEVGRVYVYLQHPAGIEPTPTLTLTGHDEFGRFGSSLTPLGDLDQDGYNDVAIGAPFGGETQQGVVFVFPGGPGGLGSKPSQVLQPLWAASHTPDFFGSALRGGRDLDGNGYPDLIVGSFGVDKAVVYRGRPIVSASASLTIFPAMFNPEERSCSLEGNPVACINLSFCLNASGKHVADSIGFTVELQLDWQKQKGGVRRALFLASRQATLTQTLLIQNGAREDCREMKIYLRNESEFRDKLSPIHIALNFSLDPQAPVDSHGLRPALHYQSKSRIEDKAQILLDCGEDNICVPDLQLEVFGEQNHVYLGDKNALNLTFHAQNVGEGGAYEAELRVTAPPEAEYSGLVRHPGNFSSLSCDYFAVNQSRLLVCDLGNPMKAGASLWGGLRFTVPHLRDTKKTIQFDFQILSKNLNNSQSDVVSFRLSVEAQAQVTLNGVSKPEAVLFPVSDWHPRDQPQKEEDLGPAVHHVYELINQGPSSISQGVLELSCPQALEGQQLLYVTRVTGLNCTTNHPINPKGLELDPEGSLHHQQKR
Sequence of Integrin alpha-5/beta-1 (P08648 895-1049 limits assumed): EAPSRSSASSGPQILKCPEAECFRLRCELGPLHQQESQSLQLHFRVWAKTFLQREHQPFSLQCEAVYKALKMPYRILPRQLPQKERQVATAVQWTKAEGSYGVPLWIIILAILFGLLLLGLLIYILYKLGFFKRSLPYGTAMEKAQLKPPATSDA

Sequence of Integrin alpha-V/beta-3 (P05106 27-788 limits assumed): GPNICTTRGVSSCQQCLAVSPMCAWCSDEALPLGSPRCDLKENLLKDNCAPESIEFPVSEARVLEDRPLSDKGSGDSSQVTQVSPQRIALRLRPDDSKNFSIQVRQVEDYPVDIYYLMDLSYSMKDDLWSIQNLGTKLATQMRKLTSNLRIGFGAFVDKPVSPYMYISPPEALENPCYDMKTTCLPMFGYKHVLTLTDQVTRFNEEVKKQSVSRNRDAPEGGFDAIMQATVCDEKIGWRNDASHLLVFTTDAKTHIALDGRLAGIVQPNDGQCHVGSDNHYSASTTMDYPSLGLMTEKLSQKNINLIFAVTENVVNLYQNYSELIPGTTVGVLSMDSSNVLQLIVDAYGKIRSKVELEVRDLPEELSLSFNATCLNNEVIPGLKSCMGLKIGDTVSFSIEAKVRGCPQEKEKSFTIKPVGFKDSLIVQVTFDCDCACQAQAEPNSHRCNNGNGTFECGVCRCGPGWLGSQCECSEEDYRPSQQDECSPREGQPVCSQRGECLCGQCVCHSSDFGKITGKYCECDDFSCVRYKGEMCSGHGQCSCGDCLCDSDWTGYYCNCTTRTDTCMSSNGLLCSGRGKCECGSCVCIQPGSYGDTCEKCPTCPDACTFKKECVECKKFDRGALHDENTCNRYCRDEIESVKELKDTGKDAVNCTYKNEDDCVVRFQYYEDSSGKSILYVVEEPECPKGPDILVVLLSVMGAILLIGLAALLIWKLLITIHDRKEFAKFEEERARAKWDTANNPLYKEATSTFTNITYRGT
Sequence of Integrin alpha-V/beta-3 (P06756 31-889 limits assumed): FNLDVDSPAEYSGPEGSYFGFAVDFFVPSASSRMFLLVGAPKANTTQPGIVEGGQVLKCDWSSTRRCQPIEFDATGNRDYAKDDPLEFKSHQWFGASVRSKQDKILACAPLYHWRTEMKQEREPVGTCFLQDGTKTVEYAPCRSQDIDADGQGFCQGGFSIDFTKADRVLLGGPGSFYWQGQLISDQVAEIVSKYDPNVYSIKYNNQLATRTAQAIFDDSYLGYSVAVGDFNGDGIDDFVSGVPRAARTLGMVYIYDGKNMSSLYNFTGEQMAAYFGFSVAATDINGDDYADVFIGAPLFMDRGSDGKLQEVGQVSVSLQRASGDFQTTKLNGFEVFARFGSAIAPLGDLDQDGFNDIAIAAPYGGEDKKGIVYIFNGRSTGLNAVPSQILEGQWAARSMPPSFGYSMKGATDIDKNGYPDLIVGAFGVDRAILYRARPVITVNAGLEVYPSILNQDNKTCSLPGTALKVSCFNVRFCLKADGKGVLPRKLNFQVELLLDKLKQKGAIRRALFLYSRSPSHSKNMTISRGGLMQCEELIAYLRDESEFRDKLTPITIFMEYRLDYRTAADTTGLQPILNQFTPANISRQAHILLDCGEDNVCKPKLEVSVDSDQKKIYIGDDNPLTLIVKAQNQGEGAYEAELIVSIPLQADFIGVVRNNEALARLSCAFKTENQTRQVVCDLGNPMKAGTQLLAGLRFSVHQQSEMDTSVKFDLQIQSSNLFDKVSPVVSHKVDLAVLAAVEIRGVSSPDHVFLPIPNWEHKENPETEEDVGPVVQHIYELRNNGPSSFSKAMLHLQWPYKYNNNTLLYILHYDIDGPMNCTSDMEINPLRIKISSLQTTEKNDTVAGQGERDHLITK
Sequence of Integrin alpha-V/beta-3 (P06756 891-1048 limits assumed): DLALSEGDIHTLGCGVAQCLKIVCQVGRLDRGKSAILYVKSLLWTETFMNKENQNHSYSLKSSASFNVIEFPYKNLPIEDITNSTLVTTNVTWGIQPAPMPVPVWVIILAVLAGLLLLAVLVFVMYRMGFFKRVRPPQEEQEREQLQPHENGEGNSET

SMILES	IC50 (Integrin alpha-V/beta-3)	IC50 (Integrin alpha-5/beta-1)
CCCN(C(=O)C(CC(=O)O)C(=O)O)C1=C(C)CC(c2ccccc2)N(Cc2ccc(C(=N)N)cc2)C1=O (configuration not stated)	> 1000 µM	> 1000 µM
CCCN(C(=O)C(CC(=O)OC)C(=O)O)C1=C(C)CC(c2ccccc2)N(Cc2ccc(N)cc2)C1=O (configuration not stated)	45 µM	> 1000 µM
CCCN(C(=O)C(CC(=O)O)C(=O)O)C1=C(C)CC(c2ccccc2)N(Cc2ccc(N)cc2)C1=O (configuration not stated)	> 1000 µM	> 1000 µM
CCCN(C(=O)CCN)C1=C(C)CC(c2ccccc2)N(CCC(=O)O)C1=O (configuration not stated)	> 1000 µM	> 1000 µM
CCCN(C(=O)CCCCCN)C1=C(C)CC(c2ccccc2)N(CCC(=O)O)C1=O (configuration not stated)	> 1000 µM	> 1000 µM
CCCN(C(=O)CC(=O)O)C1=C(C)CC(c2ccc(C(=N)N)cc2)N([C@@H](C)c2ccc(OC)cc2)C1=O (some centres not stated)	> 1000 µM	> 1000 µM
CCCN(C(=O)CC(=O)O)C1=C(C)CC(c2ccccc2)N(Cc2ccc(C(=N)N)cc2)C1=O (configuration not stated)	120 µM	> 1000 µM
CCCN(C(=O)CCC(=O)O)C1=C(C)CC(c2ccccc2)N(Cc2ccc(C(=N)N)cc2)C1=O (configuration not stated)	> 1000 µM	> 1000 µM
CCCN(C(=O)C(CC(=O)OC)C(=O)O)C1=C(C)CC(c2ccccc2)N(Cc2ccc(C(=N)N)cc2)C1=O (configuration not stated)	> 1000 µM	> 1000 µM

Stronger by IC50 (Integrin alpha-V/beta-3), values ahead:

IC50 (Integrin alpha-V/beta-3)	IC50 (Integrin alpha-5/beta-1)	SMILES
21 µM	0.018 µM	CCCN(C(=O)CC(=O)O)C1=C(C)C[C@H](c2ccc(N)cc2)N([C@@H](C)c2ccc(OC)cc2)C1=O
15.1 µM	35.1 µM	CCCN(C(=O)CC(=O)O)C1=C(C)C[C@H](c2ccccc2)N([C@@H](C)c2ccc(N)cc2)C1=O
0.6 µM	0.17 µM	CCCN(C(=O)CC(=O)O)C1=C(C)CC(c2ccccc2)N(Cc2ccc(N)cc2)C1=O (configuration not stated)
0.24 µM	> 1000 µM	CCCN(C(=O)CC(=O)O)C1=C(C)C[C@@H](c2ccc(N)cc2)N([C@@H](C)c2ccc(OC)cc2)C1=O
0.071 µM	0.057 µM	CCCN(C(=O)CC(=O)O)C1=C(C)C[C@@H](c2ccccc2)N([C@@H](C)c2ccc(N)cc2)C1=O
0.038 µM	0.043 µM	CCCN(C(=O)CC(=O)O)C1=C(C)CC(c2ccccc2)N(CCCCN)C1=O (configuration not stated)
0.025 µM	259 µM	CC(=O)N[C@@H](CC(=O)O)C(=O)N[C@@H](CCCNC(=N)N)C(=O)N[C@@H](CC(C)C)C(=O)N[C@@H](CC(=O)O)C(=O)N[C@@H](CO)C(=O)O (Ac-DRLDS-OH)
